Laboratory results: patent publication US20240207282A1, “METHOD OF INCREASING CHAPERONE MEDIATED AUTOPHAGY BY STABILIZING THE INTERACTION OF RETINOIC ACID RECEPTOR-ALPHA AND AN INHIBITOR” (ALBERT EINSTEIN COLLEGE OF MEDICINE, priority 2021, published 2024)

Legend:
KFERQ-Dendra mice = test: CMA activation in vivo in KFERQ-Dendra mice; parameters: species or system mouse; details: i.p. 30 mg/kg bw daily, three days
Text: Animals: C57BL/6J mice wild-type (WT) and homozygous for the Pde6 mutation (rd10 mouse model of retinal degeneration) were obtained from The Jackson Laboratory. C57BL/6 KFERQ-Dendra mice were generated by back-crossing FVB KFERQ-Dendra mice with wild-type C57BL/6 mice for 8 generations. Both male and female animals were used in this study in equal distribution groups. However, results from both sexes were pooled, because of absence of significant differences in any of the parameters analyzed after statistical analysis with a mixed model of two-way ANOVA sex and treatment as independent variables and the corresponding measure as dependent variable. […]
CMA activity: Cells were transduced with lentivirus carrying the KFERQ-PS-Dendra reporter as before. […] Images were quantified using the manufacturer's software in a minimum of 1,200 cells in 9 independent fields per well. […] To avoid con-funding effects for drug-induced changes in cell volume or adherence to the plate that could bring a fraction of the cells per field outside of focus, we set a threshold to count only cells that have at least 1/10 of the average number of […] detected in the untreated wells for each cell type (3-4 puncta/cell in the case of NIH3T3 and N2a cells and 5 puncta/cell in primary human fibroblasts). […] Slices were mounted in DAPI-Fluoromount-G to highlight the cell nucleus and allow quantification of puncta per cell. […]

human cells = test: CMA activity, KFERQ-PS-Dendra reporter in human cells; type: cell-based
Protocol: Cells: NIH3T3 mouse fibroblasts and the N2a neuroblastoma cell line were obtained from the American Type Culture Collection and were validated by genomic PCR. Primary human fibroblasts (GM01651) were from Coriell Repository. All the cells lines were tested for mycoplasma contamination using DNA staining protocol with Hoechst 33258 dye. Knock-down of NCoR1 was done using lentiviral mediated shRNA (SHCLNG-NM_011308) from the Sigma Mission library following standard procedures. Efficiency of knock-down was tested by immunoblot. Cell viability was measured using the CellTiter-Blue kit (Promega) 24 h after the addition of the different stressors according to manufacturer's instructions.
CMA activity: Cells were transduced with lentivirus carrying the KFERQ-PS-Dendra reporter as before. Cells were photoactivated by exposure to a 3.5 mA (current constant) light emitting diode (LED: Norlux, 405 nm) for 3 min and then plated in glass-bottom 96 well plates. At the desired times, cells were fixed with 4% PFA and imaged using high-content microscopy (Operetta system, Perkin Elmer). Images were quantified using the manufacturer's software in a minimum of 1,200 cells in 9 independent fields per well. […] To avoid con-funding effects for drug-induced changes in cell volume or adherence to the plate that could bring a fraction of the cells per field outside of focus, we set a threshold to count only cells that have at least 1/10 of the average number of […] detected in the untreated wells for each cell type (3-4 puncta/cell in the case of NIH3T3 and N2a cells and 5 puncta/cell in primary human fibroblasts). […] Slices were mounted in DAPI-Fluoromount-G to highlight the cell nucleus and allow quantification of puncta per cell. Images were acquired in x-y-z planes with an Axiovert 200 fluorescence microscope (Carl Zeiss Ltd) with a ×63 objective and 1.4 numerical aperture, mounted with an ApoTome.2 slider or with a Confocal microscope (TCS SP5; Leica) using an HCX Plan Apo CS×63.0 1.40 NA oil objective and the Leica Application Suite X (LAS X).

NIH3T3 cells [1] = details: previously reported; cited from earlier work
NIH3T3 cells [2] = test: CMA activity, KFERQ-PS-Dendra reporter in NIH3T3 cells; type: cell-based, mouse; details: for CMA activation after washout: 12 h after washing out the compounds from the media; for CMA activating effect upon knock-down of NCoR1: NCoR1 KD NIH3T3, 20 μM, 24 h; for CMA activation: increasing concentrations, 12 or 24 h, compared with AR7
Protocol: CMA activity: Cells were transduced with lentivirus carrying the KFERQ-PS-Dendra reporter as before. Cells were photoactivated by exposure to a 3.5 mA (current constant) light emitting diode (LED: Norlux, 405 nm) for 3 min and then plated in glass-bottom 96 well plates. At the desired times, cells were fixed with 4% PFA and imaged using high-content microscopy (Operetta system, Perkin Elmer). Images were quantified using the manufacturer's software in a minimum of 1,200 cells in 9 independent fields per well. […] This was particularly important in the case of primary human cells where efficiency of transduction was approximately 65%. To avoid con-funding effects for drug-induced changes in cell volume or adherence to the plate that could bring a fraction of the cells per field outside of focus, we set a threshold to count only cells that have at least 1/10 of the average number of […] detected in the untreated wells for each cell type (3-4 puncta/cell in the case of NIH3T3 and N2a cells and 5 puncta/cell in primary human fibroblasts). To measure CMA in the tissues from KFERQ-Dendra mice, the organs of interest were fixed for 12 h at 4° C. in picric acid fixation buffer (2% formaldehyde, 0.2% picric acid in PBS, pH7.0) and then washed with 70% ethanol, followed by two washes in PBS. Tissues were immersed in 30% sucrose and then embedded in OCT for sectioning in a cryostat (Leica CM3050 S). After airdrying for 30 min, sections were stored at −20° C. until use. Slices were mounted in DAPI-Fluoromount-G to highlight the cell nucleus and allow quantification of puncta per cell. Images were acquired in x-y-z planes with an Axiovert 200 fluorescence microscope (Carl Zeiss Ltd) with a ×63 objective and 1.4 numerical aperture, mounted with an ApoTome.2 slider or with a Confocal microscope (TCS SP5; Leica) using an HCX Plan Apo CS×63.0 1.40 NA oil objective and the Leica Application Suite X (LAS X).

NIH3T3 = test: Macroautophagy activity (LC3-II flux, mCherry-GFP-LC3 reporter); type: cell-based, mouse; details: 20 μM 16 h (LC3 flux)
Protocol: Macroautophagy activity: Cells were transduced with a lentiviral vector expressing mCherry-GPF-LC3^32, fixed and flux determined as the conversion of dual fluorescence puncta (autophagosomes) into only red fluorescent puncta (autolysosomes). Flux was also measured by immunoblot for LC3 in cells incubated for 6 h with 20 mM NH4Cl/100 μM leupeptin, by discounting the intensity of LC3 in non-treated cells from that in cells treated with the inhibitors.

Row | SMILES | CMA activation in vivo (KFERQ-Dendra mice) | CMA activation (human cells) | toxicity (NIH3T3 cells [1]) | CMA activation after washout (NIH3T3 cells [2]) | CMA activating effect upon knock-down of NCoR1 (NIH3T3 cells [2]) | CMA activation (NIH3T3 cells [2]) | effect on macroautophagy (NIH3T3)
1 | Clc1ccc2c(c1)OCC(c1ccc(-c3ccccc3)cc1)=N2 [CA39] | activate CMA with comparable potency in vivo both in peripheral blood cells and in multiple organs | efficiently activate CMA | without noticeable toxicity | activation was still noticeable | completely ablated the activating effect | activate CMA in a time and dose-dependent manner with higher potency than AR7 | did not have the inhibitory effect on macroautophagy
2 | CC(=O)Nc1ccc(C2=Nc3ccc(Cl)cc3OC2)cc1 [CA77] | activate CMA with comparable potency in vivo both in peripheral blood cells and in multiple organs | efficiently activate CMA | without noticeable toxicity | activation was still noticeable | completely ablated the activating effect | activate CMA in a time and dose-dependent manner with higher potency than AR7 | did not have the inhibitory effect on macroautophagy
